Common to all, as to experiment: inhibition of tumour cell growth, NCI panel, 48 h
Assay [1] has as its system ACHN renal.
For assay [2], the system named is OVCAR-8 ovarian.
Assay [3] deals with UACC-257 melanoma.
In assay [4] the test system is SNB-19 CNS.
In assay [5] the test system is OVCAR-5 ovarian.
Assay [6] relates to MOLT-4 leukemia.
Assay [7] deals with OVCAR-4 ovarian.
Assay [8] relates to KM12 colon.
In assay [9] the test system is SF-295 CNS.
Assay [10] concerns 786-0 renal.

In PubChem BioAssay (NCI) one finds GI50 and TGI data, which are given here for ten compounds.

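Exposure lasted 48 hours, with cells grown in 96-well plates and compounds tested at five concentrations. GI50 marks 50% less growth. At the TGI there is no net growth.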

With `N#Cc1ccnc(N2C(=O)CC[C@H]2C(=O)N(c2cncc(F)c2)[C@H](C(=O)NC2CC(F)(F)C2)c2ccccc2Cl)c1`, the GI50 in assay [1] was greater than 100 µM; in [2], greater than 100 µM; in [3] it was greater than 100 µM; in assay [4], greater than 100 µM; in assay [5], greater than 100 µM; in assay [6], 30.5 µM. The GI50 in assay [7] is 39.1 µM; in [8] it was 67 µM; in assay [9], greater than 100 µM; in assay [10], greater than 100 µM. For the same compound, the TGI in assay [1], in assay [2], in assay [3], in assay [4], in assay [5] and in [6] was greater than 100 µM throughout. In addition, the TGI in [7], in assay [8], in assay [9] and in [10] was greater than 100 µM throughout.
As to `CS(=O)(=O)Nc1ccc(Nc2c3ccccc3nc3ccccc23)cc1`, the TGI in assay [1] came out at 2.69 µM; in assay [2], 32.6 µM; in assay [3], 8.44 µM; in [4], 20.3 µM; in [5] it was 21 µM; in [6], 10.4 µM. The TGI in assay [7] was determined as 17.4 µM; in [8] it was 24.7 µM; in [9] it was 14.6 µM; in [10], 17.8 µM.
As for `COC(=O)C1=C(C(=O)OC)C23C=C(C)C1C2=C(C)C1(CC1)[C@@](C)(O)C3=O` (some centres undefined), the GI50 was 0.416 µM in [1]; 0.359 µM in [2]; 0.864 µM in [3]; 0.359 µM in assay [4]; 0.365 µM in assay [5]; 6.62 µM in [6]. The GI50 in assay [7] is 0.484 µM; in [8], 0.868 µM; in assay [9], 0.282 µM; in [10] it was 0.323 µM. Further, the TGI was greater than 100 µM in assay [1]; greater than 24.6 µM in assay [2]; 3.82 µM in assay [3]; 13.5 µM in assay [4]; 8.89 µM in assay [5]; greater than 100 µM in assay [6]. The TGI in assay [7] was found to be 6.43 µM; in [8] it was 11 µM; in assay [10], 3.05 µM.
On to `COc1cc2nc(Nc3cccc(F)c3)nc(Nc3cc(C)[nH]n3)c2cc1OC`, for which the GI50 in assay [1] is 1.78 µM; in assay [2], 1.76 µM; in [3], 1.87 µM; in assay [4], 1.95 µM; in assay [5] it was 1.76 µM; in [6], 1.89 µM. The GI50 is 1.68 µM in assay [7], 1.64 µM in assay [8], 1.58 µM in assay [9] and 1.75 µM in assay [10]. For the same compound, the TGI came out at 3.17 µM in assay [1]; 5.61 µM in assay [2]; 3.64 µM in assay [3]; 4.05 µM in assay [4]; 3.2 µM in assay [5]; 5.76 µM in [6]. Also, the TGI in assay [7] came to 3.49 µM; in [8], 3.32 µM; in assay [9], 3.04 µM; in assay [10], 3.45 µM.
Consider `CCOC(=O)c1cn(Cc2ccccc2)c(=O)n1Cc1ccccc1`, for which the TGI in assay [1], in [2], in [3], in [4], in assay [5] and in assay [6] was greater than 100 µM throughout. The TGI in assay [7], in assay [8], in [9] and in [10] was greater than 100 µM in each case.
As to `CN(C)CCCc1c[nH]c2ccccc12`, the TGI in assay [1], in [2], in [3], in [4], in assay [5] and in [6] was greater than 100 µM each time. In addition, the TGI in [7], in assay [8], in assay [9] and in [10] was greater than 100 µM in each case.
In the case of `NS(=O)(=O)c1ccc(CCN=C=S)cc1`, the GI50 in assay [1] is 1.85 µM; in assay [2] it was 3.15 µM; in assay [3], 2.74 µM; in assay [4], 2.92 µM; in [5] it was 1.85 µM; in assay [6], 3.05 µM. Further, the GI50 was 1.9 µM in assay [7], 1.47 µM in assay [8], 14.6 µM in assay [9] and 1.71 µM in [10]. Also, the TGI in assay [1] is 3.65 µM; in assay [2], 10.3 µM; in assay [3], 9.24 µM; in [4], 9.26 µM; in assay [5], 3.78 µM; in assay [6], greater than 100 µM. The TGI in assay [7] is 4.15 µM; in [8] it was 3.06 µM; in [9], 27.8 µM; in assay [10], 3.34 µM.
For the compound `CCOC(=O)c1c(C(F)(F)F)n([O-])c2ccc(OC)cc2[n+]1=O`, the GI50 was 4.09 µM in [1]; 5.12 µM in [2]; 3.69 µM in [3]; 3.77 µM in assay [4]; 5.49 µM in assay [5]; 4 µM in assay [6]. In addition, the GI50 is 5.39 µM in assay [7], 7.99 µM in [8], 2.61 µM in assay [9] and 6.39 µM in assay [10]. The TGI was 40.2 µM in [1]; greater than 100 µM in assay [2]; greater than 100 µM in [3]; 56.6 µM in assay [4]; 48.6 µM in [5]; 17.5 µM in [6]. The TGI in [7] is greater than 100 µM; in assay [8], greater than 100 µM; in [9] it was 8.79 µM; in assay [10], 49.5 µM.
On to `CC1=C(C(=O)Nc2ccc(Cl)c(Cl)c2)C(c2ccco2)C(C(=O)Nc2ccc(Cl)c(Cl)c2)=C(C)N1`, for which the TGI came out at 18.2 µM in assay [1]; 24.3 µM in [2]; 28.5 µM in assay [3]; 25.8 µM in assay [4]; 29.3 µM in [5]; 48 µM in assay [6]. Moreover, the TGI was 24.6 µM in assay [7], 27.3 µM in [8], 20.5 µM in assay [9] and 25.8 µM in assay [10].
For `COC(=O)C1=C(CO)C2C=CC1C2` (centres undefined), the TGI in assay [1], in [2], in assay [3], in assay [4], in [5] and in [6] was greater than 100 µM each time. The TGI in assay [7], in [8], in assay [9] and in assay [10] was greater than 100 µM each time.
